Data reported in patent US20040138291A1, “Treatment of sexual dysfunction” (priority 2002, published 2004).

Columns and labels:
[1] = test system: aged (18 months) female Wistar rats; test: Recovery of APO-induced GVA response in aged female rats with short-term anti-hypertensive treatment; format: in vivo, rat
Method: Aged (18 months) and control (3-4 months) female Wistar rats were assessed for APO-induced GVA response as described above (Example 1). Aged females were then treated with enalapril (30 mg kg^−1day^−1, orally)+low salt diet for 2 weeks. Prior to, during, and after treatment, apomorphine (80 ug kg^−1, s.c.) was used to elicit GVA responses. The frequency of GVA responses per rat for a 30-minute period was determined as described above (Example 1).

female Wistar rats = test: APO-induced genital vasocongestive arousal (GVA) response bio-assay, intact rats; settings: for average number of GVA responses: APO 80 ug/kg s.c.; for average number of GVA responses / yawning responses: 30 minutes; for yawning responses: intact animals
[2] = test system: ovariectomized (OVX) Wistar rats; test: APO-induced responses in ovariectomized (OVX) rats; format: in vivo, rat
Method: A modification of a previous protocol using APO (80 ug/kg in 100 ug/ml ascorbic acid in water, s.c.) was used^(17). […] Rats were placed in hanging cages with bottoms constructed of Plexiglas®, in a dark, quiet room where they were allowed to acclimate for 10 minutes before the testing period. Following APO administration, the number of genital responses and associated yawning responses were recorded for a 30 minute period via a video monitoring system in an adjacent room.
APO-induced responses were determined in ovariectomized (OVX)^(22) rats to determine the effect of reduced levels of endogenous hormones. In brief, animals were anaesthetized with isoflurane gas delivered via a Bain rebreathing system. A small midline dorsal skin incision was made approximately half-way between the middle of the back and the base of the tail. Both ovaries were removed by ligating and severing the junction between the fallopian tube and uterine hom. Post-operative analgesia (buprenorphine, Buprenex™, 0.05 mg/kg) and antibiotics (0.1 ml/100 g body wt., Tribrissen™ 24%, Schering Canada Inc.) were administered daily for 5 days. Animals were given at least one week to recover before the onset of experimentation.

[3] = test system: male spontaneously hypertensive rats (SHR); test: APO-induced penile erectile response in aging SHR with anti-hypertensive and testosterone treatments; format: in vivo, rat; settings: for number of erections relative to pre-treatment: summary of Example 3; for increase in number of erections two weeks off treatment: third treatment at 68 weeks, previously untreated rats, low salt diet, 30 mg/kg per day
Method: Animals: 30-week-old male spontaneously hypertensive rats (Charles River Laboratories, Montreal, Quebec, Canada) were housed individually at a temperature of 22-24° C. with a 12-hour light/dark cycle. They were provided with free access to regular rodent chow (0.4% Na^+) and tap water. All procedures were performed in accordance with the guidelines of the Canadian Council on Animal Care.
Anti-hypertensive Treatments. Rats were randomly divided into three groups. The control animals received only tap water. One treatment group received the ACE inhibitor enalapril maleate (30 mg/kg per day), and the other received the vasodilator hydralazine (45 mg/kg per day) (enalapril and hydralazine supplied by Sigma Chemical Co., St. Louis, Mo.) administered orally through their drinking water for 2 weeks. Aspartame (100 mg/1) was added to the hydralazine solution to improve the taste. Drug concentrations were calculated based on previously established drinking patterns^(24). Several times throughout the 2-week treatment period, the drug concentrations in the drinking water were adjusted to account for fluctuations in animal weight or fluid intake. Erectile response was measured in all groups with the administration of apomorphine (APO). APO-testing was performed three times before treatment and twice between days 7-14 of treatment.
A second two-week anti-hypertensive treatment was performed at 49 weeks of age. Rather than trying to prevent erectile dysfunction, this treatment attempted to restore erectile function. The same drugs and procedures were used as outlined above. APO-testing was performed twice between days 7-14 of treatment and twice off treatment.
Rats were randomized into four new treatment groups. The previously untreated rats received enalapril (30 mg/kg per day) or losartan (30 mg/kg per day) in their drinking water and were fed a low sodium diet (0.04% Na^+). After 6 days of treatment, a daily 4-hour access to salt containing regular chow (0.4% Na^+) was permitted to allow for a depressor response of 50% of the pre-treatment levels^(25). The treated rats received enalapril (30 mg/kg per day) in their drinking water and a low sodium diet (0.04% Na^+) or a triple therapy treatment^(24) combining hydralazine (45 mg/kg per day), a calcium channel blocker, nifedipine (200 mg per day) and a diuretic, hydrochlorothiazide (100 mg/l) (all drugs supplied by Sigma Chemical Co., St. Louis, Mo.). Hydralazine and hydrochlorothiazide were administered in the drinking water and nifedipine was mixed into ground regular rodent chow during the 12 h dark cycle. Aspartame (100 mg/l) was added to the hydralazine solution to improve the taste. APO-testing was performed twice between days 7-14 of treatment and twice off treatment.
Testosterone was prepared from a stock solution of testosterone propionate (Taro Pharmaceuticals, Bramalea, Ontario) diluted in peanut oil. Each rat received a single dose of testosterone (480 μg/kg) administered via subcutaneous injection in the neck. Testosterone was administered 36 hours prior to APO-testing.
Assessment of Erectile Response. Erectile response was assessed using the well-established bio-assay rat model developed by Heaton et al.^(17). The rats were placed in separate, wire hanging-wall cages with clear Plexiglas bottoms in a dark, quiet room and allowed to acclimate for 20 minutes. Each rat received apomorphine (80 μg/kg) in saline ([…] apomorphine plus 100 μg/ml ascorbic acid) via subcutaneous injection (1 ml/kg) in the loose skin of the neck or back. Erections and yawns were counted at 5-minute intervals over a 30-minute period via videomonitoring in an adjacent room.

[4] = distribution over the 30-minute period

CN1CCc2cccc3c2[C@H]1Cc1ccc(O)c(O)c1-3 [APO, apomorphine]
average GVA responses in control (3-4 months) female rats ([1]; APO 80 ug/kg s.c., 30 minute period): about 2 | APO-induced GVA response rate in aged females ([1]; pre-treatment): 40% | GVA responses in aged female rats relative to controls ([1]; prior to anti-hypertensive treatment, APO 80 ug/kg s.c.): significantly fewer | share of total GVA responses occurring within the first 20 minutes (female Wistar rats; 30-minute period): 80% | genital grooming responses, dose-response assessment (female Wistar rats; APO 40, 80 & 120 ug/kg, result for 80 ug/kg, preliminary studies): greatest number of genital grooming responses | non-GVA responses, APO vs control tested animals (female Wistar rats; any stage of the estrous cycle): no significant difference | average number of GVA responses (female Wistar rats; diestrus 1): 1.13±1.36 | yawning responses (female Wistar rats; diestrus 1): 2±2.50 | average number of GVA responses (female Wistar rats; diestrus II): 0.88±0.85 | time of peak of APO-induced GVA responses (female Wistar rats; [4]): 5 to 10 min | time of peak of APO-induced yawning responses (female Wistar rats; [4]): 15 to 20 min | average number of GVA responses (female Wistar rats; estrus): 1.75±1.67 | average number of GVA responses (female Wistar rats; metestrus): 1.5±1.20 | yawning responses (female Wistar rats; metestrus): 3.63±3.96 | average number of GVA responses (female Wistar rats; proestrus, 8 rats): 1.5±1.06 | reduction of GVA responses in OVX rats relative to intact animals ([2]; 8 OVX Wistar rats, 30 minute period): about 80% | non-GVA responses, OVX vs intact animals ([2]; APO administration): no significant difference | APO-induced erectile responses with age ([3]; SHR 30-68 weeks, APO 80 μg/kg s.c.): progressive loss of response

CCC(=O)O[C@H]1CC[C@H]2[C@@H]3CCC4=CC(=O)CC[C@]4(C)[C@H]3CC[C@]12C [Testosterone, testosterone propionate]
effect of testosterone on erectile response ([3]; 66 weeks of age): did not increase erectile response | effect of testosterone on number of yawns ([3]; 66 weeks of age): significantly increase | effect of testosterone supplementation on number of erections ([3]; control rats and rats treated with hydralazine, 47 and 66 weeks of age, 480 μg/kg s.c.): did not significantly affect | increase in number of erections with testosterone ([3]; enalapril treated rats, after the first testosterone treatment): 2.5 fold

CCOC(=O)[C@H](CCc1ccccc1)N[C@@H](C)C(=O)N1CCC[C@H]1C(=O)O [enalapril]
frequency of APO-induced GVA responses off treatment relative to the treatment period ([1]; 1 & 3 week off-treatment, p<0.05): persistent and significant increase | persistence of increased sexual responsiveness to APO after cessation of treatment ([1]; compared to pre-treatment levels): persisted for at least ten weeks | overall APO-induced GVA response rate in aged females ([1]; during anti-hypertensive treatment): 56% | APO-induced GVA responses during anti-hypertensive treatment ([1]; enalapril 30 mg/kg/day orally + low salt diet, 2 weeks, p=0.065): trend of increasing | overall APO-induced GVA response rate in aged females ([1]; off-treatment): 93% | partial behavioural responses ([1]; persisted after cessation of the treatment, FIG. 2): increase in the number of partial behavioural responses | APO-induced GVA response of aged rats after two weeks of daily treatment ([1]; summary of pilot study): increased to levels of young rats | average number of erections two weeks after treatment was withdrawn ([3]; second treatment at 49 weeks): significantly higher level than the pre treatment values | increase in average number of erections on treatment vs pre treatment ([3]; second treatment at 49 weeks, not significant): > 2 fold | number of erections relative to pre-treatment [3]: significant increases | increase in number of erections two weeks off treatment [3]: 2 fold

CCCCc1nc(Cl)c(CO)n1Cc1ccc(-c2ccccc2-c2nn[nH]n2)cc1 [losartan]
number of erections relative to pre-treatment [3]: significant increases | increase in number of erections two weeks off treatment [3]: 2 fold
